Data on 3 compounds can be found in US20230312587A1, “PTERIDINONE COMPOUNDS AND USES THEREOF” (Vertex Pharmaceutical Incorporated, priority 2018, published 2023).

SMILES strings stand for the structures.

The test system of assay [1] is non-small cell lung cancer (NSCLC) adenocarcinoma line D33966. Put plainly: In vivo efficacy, NSCLC patient derived xenograft OD33966. Also on record: species or system nu/nu mice. Conditions: Mus musculus, 336 h; NSCLC PDX OD33966, oral, 100 mpk qd, treatment day 14; read-out: % TGI. How it is done:
Female immune deficient mice (Charles River, 4-6 wks age) were anesthetized with Ketamine-Xylazine (140 mg/kg-14 mg/kg ip) and shaved. Puralube eye ointment was applied to the eyes to prevent desiccation of the corneas. Betadine and 70% ethanol was applied to the shaved location to sterilize the skin at the location of the incision. The animals were placed in a biosafety cabinet for the duration of the surgery. Using scissors, an 8 to 10 mm incision was made in the lateral flank of the skin. A tumor fragment weighing between 50 and 150 mg was placed under the skin at the incision site using forceps, and staples were used to close the incision. The staples were removed 5 to 7 days after surgery. Starting approximately two weeks after implantation, animals were weighed, and tumors were measured using caliper twice weekly. Tumor volume was calculated using the formula: volume=length×width^2×0.52.
Compound administration began when xenografts reached approximately 100-300 mm3 and continued until control xenografts reached […] of the animal's body weight. Test compounds were administered orally by gastric gavage. Percent tumor growth inhibition (TG) was calculated on the indicated treatment day. Percent TGI is defined as: [1−(del T/del C)]×100%, where del T is the final minus initial average volumes of the treated group, and del C is the final minus initial average volumes of the control group. […] The tested compounds were administered orally. Vehicle control consisted of either 0.5% methylcellulose/0.1% sodium lauryl sulfate or 20% captisol. Tumor volumes were determined by caliper measurement twice a week.
In general terms: A xenograft is tissue or cells of one species grown in another, often human tumour cells in immunodeficient mice.

In assay [2] the test system is β-catenin-TCF-mediated reporter transcription activity in Colo 205 cells. Kind of assay: Colo 205 reporter assay (TCF/LEF luciferase). Format: cell-based. As to conditions: Homo sapiens, COLO 205, 5 h, Colo 205 TCF/LEF luciferase reporter, five hours after addition of compound; read-out: TCF reporter Colo205 IC50. In outline:
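Luciferase signal from a TCF/LEF-driven reporter, stably integrated in Colo 205 colon cancer cells, was measured 5 h after compound addition.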
For orientation: In a reporter assay the amount or activity of a reporter protein is the signal.

Assay [3] relates to Colo205-TCF/LEF-Luciferase (Luc) tumor. Kind of assay: In vivo inhibition of TCF/LEF reporter activity in Colo-205 tumors. Also on record: concentration or dose not given beside the values. Conditions: TCF/LEF luciferase reporter in Colo-205 tumors, nu/nu mice, oral gavage. The essentials:
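Female nu/nu mice carried subcutaneous Colo205-TCF/LEF-luciferase tumours (200–500 mm^3), n=4 per group. Compound was given by oral gavage in 1:3:5:1 EtOH:DMSO:PEG-400:H2O at 10 ml/kg, with vehicle as control. Luciferase activity in tumour lysates (Steady-Glo) was normalised to BCA protein.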

In a further assay the test system is HepG2 XBP1(u)-Luc cells. Put plainly: HepG2 XBP1 reporter assay. Format: cell-based. Conditions: Homo sapiens, 6 h. As for the experimental part:
HepG2 hepatoma cells were transduced with a retrovirus encoding the cDNA for unspliced (u) XBP1, which contains a non-processed intron, fused to the cDNA for firefly luciferase. Upon induction of ER stress, the non-processed intron of XBP1(u) is spliced out by active IRE1alpha endonuclease. The resulting spliced (s) XBP1 is now in frame with luciferase which causes the production of active luciferase protein, resulting in bioluminescence
HepG2 XBP1(u)-Luc cells were plated […] Cultured cells with a stably transfected reporter construct were plated at approximately 30,000 cells per well into 96 well multi-well plates for twenty four hours. The testing compounds were then added to the wells in 3-fold serial dilutions using a twenty seven micromolar top concentration. A series of control wells for each cell type received only compound solvent. Six hours after the addition of compound, reporter activity for luciferase was assayed, by addition of the SteadyGlo luminescence reagent (Promega). The reporter luminescence activity was measured using Pherastar plate reader (BMG Labtech). Readings was normalized to DMSO only treated cells, and normalized activities were then used in the IC50 calculations. The HepG2 XBP1 reporter assay data are summarized in Table 47: A<0.6 μM; 0.6 μM≤B<2.0 μM; 2.0 μM≤C<10.0 μM; D≥10.0 μM.

The next assay has as its system Colo-205 cells. Kind of assay: Calcium flux assay (FLIPR Calcium 5). Conditions: Homo sapiens, COLO 205, 0.6 h, FLIPR Calcium 5, measured over 36 minutes. Type of assay: cell-based. As for the experimental part: Compounds described herein induced ER stress by causing intracellular calcium flux. Calcium flux was measured in Colo-205 cells using the FLTPR® Calcium 5 Assay Kit according to manufacter's protocol (Molecular Devices, Cat. #R8186) on a FLIPR3 system (Molecular Devices). Calcium flux is measured over 36 minutes. The Colo-205 calcium flux assay data are summarized in Table 47: A<0.6 μM; 0.6 μM≤B<2.0 μM; 2.0 μM≤C<10.0 μM; D≥10.0 μM.
In general terms: A change in cytosolic calcium serves as a functional read-out for many receptors and channels.

In assay [4] the target is HEK293 membranes over-expressing WFS-1 (Homo sapiens (Human), UniProt O76024). Put plainly: Radioligand displacement assay (tritiated Compound 136 probe). Type of assay: binding. As to conditions: displacement of tritiated Compound 136. In outline: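 WFS-1-overexpressing HEK293 membranes were preincubated 10 min with compound, then tritiated probe was added for 90 min at room temperature. Bound probe was collected by filtration on PEI-pretreated GF/B filters, washed and scintillation-counted. IC50 came from a 3-parameter fit of bound probe vs compound concentration.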
HEK293 membranes over-expressing WFS-1, sequence (O76024 whole entry): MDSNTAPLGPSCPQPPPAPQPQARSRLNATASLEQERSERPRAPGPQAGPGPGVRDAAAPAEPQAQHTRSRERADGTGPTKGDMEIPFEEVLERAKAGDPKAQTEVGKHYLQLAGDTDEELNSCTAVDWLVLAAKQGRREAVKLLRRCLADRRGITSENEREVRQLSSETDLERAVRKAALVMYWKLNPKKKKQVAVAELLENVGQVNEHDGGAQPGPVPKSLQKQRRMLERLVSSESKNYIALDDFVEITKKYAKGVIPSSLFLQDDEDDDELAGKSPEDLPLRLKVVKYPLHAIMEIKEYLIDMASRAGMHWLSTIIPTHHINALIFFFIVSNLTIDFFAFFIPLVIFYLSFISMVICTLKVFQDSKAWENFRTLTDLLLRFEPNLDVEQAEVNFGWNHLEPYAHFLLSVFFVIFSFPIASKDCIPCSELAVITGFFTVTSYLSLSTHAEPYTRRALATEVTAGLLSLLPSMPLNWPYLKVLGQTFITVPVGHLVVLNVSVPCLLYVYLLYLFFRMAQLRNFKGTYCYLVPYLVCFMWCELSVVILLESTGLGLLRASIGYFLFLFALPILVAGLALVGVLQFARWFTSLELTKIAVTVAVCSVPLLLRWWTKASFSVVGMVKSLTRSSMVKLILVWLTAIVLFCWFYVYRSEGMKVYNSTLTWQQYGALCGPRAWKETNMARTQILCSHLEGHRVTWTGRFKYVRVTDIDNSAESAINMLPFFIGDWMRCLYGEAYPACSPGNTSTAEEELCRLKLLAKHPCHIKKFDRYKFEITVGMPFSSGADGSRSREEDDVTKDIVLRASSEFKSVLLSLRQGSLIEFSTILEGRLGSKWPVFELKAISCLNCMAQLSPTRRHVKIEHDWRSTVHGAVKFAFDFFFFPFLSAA

Another assay has as its target Plk1 (Homo sapiens (Human), UniProt P53350). Put plainly: PLK1 inhibition assay (radioactive-phosphate incorporation). Format: biochemical. Conditions: Ki(app), read-out: PLK1 - 33P.ENZ - CB 10 Ki. As for the experimental part:
Compounds were screened for their ability to inhibit Plk1 using a radioactive-phosphate incorporation assay. Assays were carried out in a mixture of 25 mM HEPES (pH 7.5), 10 mM MgCl2, 25 mM NaCl, and 2 mM DTT. Final substrate concentrations were 20 μM [γ-33P]ATP (35mCi 33P ATP/mmol ATP, Perkin Elmer/Sigma Chemicals) and 9 uM Sam68 protein. Assays were carried out at room temperature in the presence of 15 nM Plk1. An assay stock buffer solution was prepared containing all of the reagents listed above, with the exception of ATP and the test compound of interest. 0.75 μL of DMSO stock containing serial dilutions of the test compound (typically starting from a final concentration of 10 μM with 2-fold serial dilutions—final DMSO concentration 1.5%) was placed in a 384 well plate followed by addition of 25 μL [γ-33P]ATP (final concentration 20 μM). The reaction was initiated by addition of 25 μL of the assay stock buffer solution.
The reaction was stopped after 45 minutes by the addition of 25 μL 30% trichloroacetic acid (TCA) containing 10 mM cold ATP. The entire quenched reaction was transferred to a 384-well glass fiber filter plate (Millipore, Cat no. MZFBNOW50). The plate was washed with 3×5% TCA. After drying, 40 μL of Ultima Gold liquid scintillation cocktail (Perkin Elmer) was added to the well prior to scintillation counting in a PerkinElmer TopCount.
After removing mean background values for all of the data points, Ki(app) data were calculated from non-linear regression analysis of the initial rate data using the Prism software package (GraphPad Prism, GraphPad Software, San Diego California, USA).

In assay [5] the test system is global gene expression in HepG2 cells. Kind of assay: Global gene expression changes in HepG2 vs WFS1 depleted cells. Format: cell-based. Conditions: HepG2, 6 hours of exposure. From the text: (§1) In contrast WFS1 depletion had no effect on thapsigargin induced changes in global gene expression (FIG. 7.)
In assay [6] the test system is ER stress marker proteins XBP1(s) and ATF4. Put plainly: ER stress marker immunoblot in parental HepG2 vs WFS1 KO cells. As to conditions: 6 hours, immunoblotting. Type of assay: cell-based.
Source text: as §1

Plk1, sequence (P53350 whole entry, species assumed): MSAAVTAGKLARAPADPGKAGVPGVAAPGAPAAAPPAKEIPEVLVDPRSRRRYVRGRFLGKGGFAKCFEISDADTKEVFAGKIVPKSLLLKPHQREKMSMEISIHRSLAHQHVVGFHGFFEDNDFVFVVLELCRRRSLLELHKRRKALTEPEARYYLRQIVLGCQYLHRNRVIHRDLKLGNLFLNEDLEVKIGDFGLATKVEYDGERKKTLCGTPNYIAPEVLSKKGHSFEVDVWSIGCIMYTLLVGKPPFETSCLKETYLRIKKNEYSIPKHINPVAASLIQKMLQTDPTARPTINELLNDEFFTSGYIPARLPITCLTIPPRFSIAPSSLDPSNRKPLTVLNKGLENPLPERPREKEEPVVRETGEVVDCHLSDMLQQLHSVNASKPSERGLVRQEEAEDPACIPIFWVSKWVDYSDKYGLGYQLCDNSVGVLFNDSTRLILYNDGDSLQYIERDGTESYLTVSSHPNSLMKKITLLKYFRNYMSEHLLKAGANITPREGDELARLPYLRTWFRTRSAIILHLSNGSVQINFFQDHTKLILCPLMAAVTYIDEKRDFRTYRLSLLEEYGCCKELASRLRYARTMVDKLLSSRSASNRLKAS

Consider `C[C@H]1C(=O)Nc2cnc(NCc3cnn(Cc4cc(F)c(F)c(F)c4)c3)nc2N1C` [Compound 42, (7S)-7,8-dimethyl-2-(((1-(3,4,5-trifluorobenzyl)-1H-pyrazol-4-yl)methyl)amino)-7,8-dihydropteridin-6(5H)-one], for which the inhibition in vivo at 100 mg/kg in [1] came to 79.6%. Besides, the IC50 in [2] was under 300 nM. Moreover, the “Percent Remaining Activity at 8 hrs after Dosing” value in assay [3] stood at 20%.
Take `Cc1nc(N[C@H]2C[C@H](OCc3cc(F)c(F)c(F)c3)C2)nc2c1NC(=O)[C@H](C)N2C` [Compound 254, (7S)-4,7,8-trimethyl-2-((trans-3-((3,4,5-trifluorobenzyl)oxy)cyclobutyl)amino)-7,8-dihydropteridin-6(5H)-one]: the IC50 in the assay with HepG2 XBP1(u)-Luc cells is under 600 nM; in [4], 60 to 600 nM; in [2], under 300 nM. In addition, the half-maximal effective concentration (EC50) in the assay with Colo-205 cells was 600 to 2000 nM. In addition, on Plk1, the Ki was over 4000 nM.
`C/C=C(/C)C(=O)O[C@H]1C(C)=C2[C@H]([C@@H]1OC(=O)CCCCCCC)[C@@](C)(OC(C)=O)C[C@H](OC(=O)CCC)[C@@]1(O)[C@H]2OC(=O)[C@@]1(C)O` [thapsigargin, reference compound]: the “effect of WFS1 depletion on changes in global gene expression” value in [5] is listed as “no effect”. In assay [6], the “effect of WFS1 depletion on induction of XBP1(s) and ATF4” value is given as “much lesser effect”.

For orientation: IC50 means the concentration at which inhibition is half-maximal. One may read the EC50 as the concentration that produces a half-maximal response.
